According to patent US8598365B2, “Herbicides” (Syngenta Limited, priority 2007, dated 2013):

Tests used:
Assay type in all cases: in vivo
[1] = tested on: Amaranthus retoflexus (AMARE); experiment: Example B pre-emergence herbicidal activity; details: Amaranthus retroflexus, 312 h, evaluated after 13 days, read-out: Pre-Emergence Activity AMARE (100=total damage to plant; 0=no damage to plant); for pest or weed control at 250 g/ha: rate 250 g/ha
Description: (§1) Seeds of a variety of test species were sown in standard soil in pots. After cultivation for one day (pre-emergence) or after 8 days cultivation (post-emergence) under controlled conditions in a glasshouse (at 24/16° C., day/night; 14 hours light; 65% humidity), the plants were sprayed with an aqueous spray solution derived from the formulation of the technical active ingredient in acetone/water (50:50) solution containing 0.5% Tween 20 (polyoxyethelyene sorbitan monolaurate, CAS RN 9005-64-5).
(§2) The test plants were then grown in a glasshouse under controlled conditions in a glasshouse (at 24/16° C., day/night; 14 hours light; 65% humidity) and watered twice daily. After 13 days for pre and post-emergence, the test was evaluated (100=total damage to plant; 0=no damage to plant).
(§3) Alopecurus myosuroides (ALOMY), Avena fatua (AVEFA), Setaria faberi (SETFA), Echinochloa crus-galli (ECHCG), Solanum nigrum (SOLNI) and Amaranthus retoflexus (AMARE)

Avena fatua (AVEFA) [2] = experiment: Example B pre-emergence herbicidal activity; details: 312 h, evaluated after 13 days, read-out: Pre-Emergence Activity AVEFA (100=total damage to plant; 0=no damage to plant); for pest or weed control at 250 g/ha: rate 250 g/ha
Description: as §1, §2, §3

[3] = tested on: Echinochloa crus-galli (ECHCG); experiment: Example B pre-emergence herbicidal activity; details: 312 h, evaluated after 13 days, read-out: Pre-Emergence Activity ECHCG (100=total damage to plant; 0=no damage to plant); for pest or weed control at 250 g/ha: rate 250 g/ha
Description: as §1, §2, §3

Setaria faberi (SETFA) [4] = experiment: Example B pre-emergence herbicidal activity; details: 312 h, evaluated after 13 days, read-out: Pre-Emergence Activity SETFA (100=total damage to plant; 0=no damage to plant); for pest or weed control at 250 g/ha: rate 250 g/ha
Description: as §1, §2, §3

[5] = tested on: Alopecurus myosuroides (ALOMY); experiment: Example B pre-emergence herbicidal activity; details: 312 h, evaluated after 13 days, read-out: Pre-Emergence Activity ALOMY (100=total damage to plant; 0=no damage to plant); for pest or weed control at 250 g/ha: rate 250 g/ha
Description: as §1, §2, §3

[6] = tested on: Amaranthus retoflexus (AMARE); experiment: Example B post-emergence herbicidal activity; details: Amaranthus retroflexus, 312 h, evaluated after 13 days, read-out: Post-emergence activity AMARE (100=total damage to plant; 0=no damage to plant); for pest or weed control at 250 g/ha: rate 250 g/ha
Description: as §1, §2, §3

Avena fatua (AVEFA) [7] = experiment: Example B post-emergence herbicidal activity; details: 312 h, evaluated after 13 days, read-out: Post-emergence activity AVEFA (100=total damage to plant; 0=no damage to plant); for pest or weed control at 250 g/ha: rate 250 g/ha
Description: as §1, §2, §3

[8] = tested on: Echinochloa crus-galli (ECHCG); experiment: Example B post-emergence herbicidal activity; details: 312 h, evaluated after 13 days, read-out: Post-emergence activity ECHCG (100=total damage to plant; 0=no damage to plant); for pest or weed control at 250 g/ha: rate 250 g/ha
Description: as §1, §2, §3

Setaria faberi (SETFA) [9] = experiment: Example B post-emergence herbicidal activity; details: 312 h, evaluated after 13 days, read-out: Post-emergence activity SETFA (100=total damage to plant; 0=no damage to plant); for pest or weed control at 250 g/ha: rate 250 g/ha
Description: as §1, §2, §3

[10] = tested on: Alopecurus myosuroides (ALOMY); experiment: Example B post-emergence herbicidal activity; details: 312 h, evaluated after 13 days, read-out: Post-emergence activity ALOMY (100=total damage to plant; 0=no damage to plant); for pest or weed control at 250 g/ha: rate 250 g/ha
Description: as §1, §2, §3

Row | Compound | pest or weed control at 250 g/ha [1] | pest or weed control at 250 g/ha (Avena fatua (AVEFA) [2]) | pest or weed control at 250 g/ha [3] | pest or weed control at 250 g/ha (Setaria faberi (SETFA) [4]) | pest or weed control at 250 g/ha [5] | pest or weed control at 250 g/ha [6] | pest or weed control at 250 g/ha (Avena fatua (AVEFA) [7]) | pest or weed control at 250 g/ha [8] | pest or weed control at 250 g/ha (Setaria faberi (SETFA) [9]) | pest or weed control at 250 g/ha [10] | pest or weed control at 1000 g/ha ([1]; rate 1000 g/ha) | pest or weed control at 1000 g/ha (Avena fatua (AVEFA) [2]; rate 1000 g/ha) | pest or weed control at 1000 g/ha ([3]; rate 1000 g/ha) | pest or weed control at 1000 g/ha (Setaria faberi (SETFA) [4]; rate 1000 g/ha) | pest or weed control at 1000 g/ha ([5]; rate 1000 g/ha) | pest or weed control at 1000 g/ha ([6]; rate 1000 g/ha) | pest or weed control at 1000 g/ha (Avena fatua (AVEFA) [7]; rate 1000 g/ha) | pest or weed control at 1000 g/ha ([8]; rate 1000 g/ha) | pest or weed control at 1000 g/ha (Setaria faberi (SETFA) [9]; rate 1000 g/ha) | pest or weed control at 1000 g/ha ([10]; rate 1000 g/ha)
1 | Cc1sc(-c2ccc(OC(F)F)cc2Cl)nc1C1=C(OC(=O)C(C)(C)C)[C@@H]2CC[C@@H](C2)C1=O [Compound P17] | 0% | 50% | 100% | 100% | 80% | 0% | 80% | 100% | 100% | 90% | – | – | – | – | – | – | – | – | – | –
2 | CC(=O)OC1=C(c2nc(-c3ccc(Cl)cc3)ncc2C)C(=O)[C@H]2CC[C@@H]1C2 [Compound P18] | 0% | 0% | 70% | 60% | 20% | 40% | 0% | 80% | 90% | 10% | – | – | – | – | – | – | – | – | – | –
3 | CC(=O)OC1=C(c2nc(-c3ccc(Cl)cc3)ncc2C)C(=O)[C@@H]2C[C@H]1C2(C)C [Compound P19] | 0% | 0% | 20% | 90% | 10% | 0% | 0% | 90% | 90% | 20% | – | – | – | – | – | – | – | – | – | –
4 | CC(C)(C)C(=O)OC1=C(c2csc(-c3ccc(Cl)cc3)n2)C(=O)[C@@H]2CC[C@H]1C2 [Compound P22] | 0% | 0% | 0% | 30% | 0% | 0% | 0% | 20% | 70% | 0% | – | – | – | – | – | – | – | – | – | –
5 | Cc1sc(-c2cccs2)nc1C1C(=O)[C@@H]2CC[C@@H](C2)C1=O (some centres unmarked) [Compound T2] | 0% | 0% | 0% | 50% | 0% | 0% | 0% | 30% | 70% | 0% | – | – | – | – | – | – | – | – | – | –
6 | Cc1sc(-c2ccc(Cl)cc2Cl)nc1C1C(=O)[C@@H]2CC[C@@H](C2)C1=O (some centres unmarked) [Compound T3] | 0% | 0% | 80% | 90% | 60% | 0% | 60% | 100% | 100% | 90% | – | – | – | – | – | – | – | – | – | –
7 | Cc1sc(-c2ccc(OC(F)(F)F)cc2)nc1C1C(=O)[C@@H]2CC[C@@H](C2)C1=O (some centres unmarked) [Compound T5, 3-[5-methyl-2-(4-trifluoromethoxyphenyl)thiazol-4-yl]bicyclo[3.2.1]octane-2,4-dione] | 0% | 0% | 80% | 90% | 50% | 0% | 0% | 100% | 100% | 70% | – | – | – | – | – | – | – | – | – | –
8 | Cc1sc(-c2ccc(Cl)c(Cl)c2)nc1C1C(=O)[C@@H]2CC[C@@H](C2)C1=O (some centres unmarked) [Compound T9] | 0% | 0% | 50% | 50% | 30% | 0% | 0% | 70% | 100% | 60% | – | – | – | – | – | – | – | – | – | –
9 | Cc1ccc(-c2nc(C3C(=O)[C@@H]4CC[C@@H](C4)C3=O)c(C)s2)cc1Cl (some centres unmarked) [Compound T10] | 0% | 0% | 60% | 20% | 20% | 0% | 0% | 70% | 70% | 20% | – | – | – | – | – | – | – | – | – | –
10 | Cc1ccc(-c2nc(C3C(=O)[C@@H]4CC[C@@H](C4)C3=O)c(C)s2)cc1 (some centres unmarked) [Compound T11] | 0% | 0% | 70% | 0% | 40% | 0% | 40% | 100% | 80% | 90% | – | – | – | – | – | – | – | – | – | –
11 | Cc1sc(-c2ccc(Cl)cc2F)nc1C1C(=O)[C@@H]2CC[C@@H](C2)C1=O (some centres unmarked) [Compound T13] | 0% | 40% | 100% | 100% | 90% | 0% | 90% | 100% | 100% | 100% | – | – | – | – | – | – | – | – | – | –
12 | Cc1cc(Cl)ccc1-c1nc(C2C(=O)[C@@H]3CC[C@@H](C3)C2=O)c(C)s1 (some centres unmarked) [Compound T14] | – | – | – | – | – | – | – | – | – | – | 0% | 80% | 90% | 70% | 30% | 20% | 90% | 100% | 100% | 90%
13 | CCc1sc(-c2ccc(Cl)c(C)c2)nc1C1C(=O)[C@@H]2CC[C@@H](C2)C1=O (some centres unmarked) [Compound T20] | 0% | 0% | 70% | 40% | 50% | 0% | 90% | 100% | 90% | 90% | – | – | – | – | – | – | – | – | – | –
14 | CCc1sc(-c2ccc(Cl)c(Cl)c2)nc1C1C(=O)[C@@H]2CC[C@@H](C2)C1=O (some centres unmarked) [Compound T22] | 20% | 20% | 80% | 100% | 70% | 0% | 90% | 90% | 90% | 90% | – | – | – | – | – | – | – | – | – | –
